Common to all, as to type: functional, organism-based
Assay [1] deals with Plasmodium falciparum. Description: Antimalarial activity against Plasmodium falciparum K1.
The next assay has as its system Plasmodium berghei. The experiment in a line: Antiplasmodial activity against Plasmodium berghei assessed as reduction in parasitemia.
In assay [2] the test system is Plasmodium falciparum. The experiment in a line: Antimalarial activity against multi drug resistant Plasmodium falciparum W2.
For assay [3], the system named is Plasmodium falciparum. Description: Antimalarial activity against Plasmodium falciparum W2 (MRA-157) incubated for 72 hrs.
The subject of assay [4] is Plasmodium falciparum. Description: Antimalarial activity against chloroquine sensitive Plasmodium falciparum 3D7.
In assay [5] the test system is Plasmodium falciparum. Description: Antimalarial activity against chloroquine sensitive Plasmodium falciparum K1.
Assay [6] relates to Plasmodium falciparum. The experiment in a line: Antimalarial activity against Plasmodium falciparum D6.
The subject of assay [7] is Plasmodium falciparum. Description: Antiplasmodial activity against chloroquine sensitive Plasmodium falciparum FCA 20/Ghana.
Assay [8] has as its system Plasmodium falciparum. The experiment in a line: Antiplasmodial activity against chloroquine sensitive Plasmodium falciparum FCB1-R/Colombia.
The test system of assay [9] is Plasmodium falciparum. Description: Antiplasmodial activity against chloroquine sensitive Plasmodium falciparum W2/Indochina.
The test system of assay [10] is Plasmodium falciparum. Description: Antimalarial activity against chloroquine-resistant Plasmodium falciparum.
Setting [11] is: Plasmodium falciparum, FCA 20/Ghana.
Setting [12] is: Plasmodium falciparum, W2/Indochina.

≈ marks a conversion by molar mass, not a printed value.

The compound `OCCNc1nccc2c1[nH]c1ccccc12` displayed a half-maximal inhibitory concentration (IC50) in the assay with Plasmodium falciparum [1] of 2400 nM.

Take `COC(=O)[C@@H]1Cc2c([nH]c3ccccc23)[C@@H](c2cccnc2)N1`: the IC50 with Plasmodium berghei is below 5 µg/mL.

In the assay with Plasmodium falciparum [2], `Cc1ccc(C2NCCc3c2[nH]c2ccccc32)c(C)c1` (configuration not stated) yielded an IC50 of 25.3 µM.

Regarding `c1ccc(C2NCCc3c2[nH]c2ccccc32)cc1` (configuration not stated), in the assay on Plasmodium falciparum [2], half-maximal inhibition (IC50) was put at 8.1 µM.

The compound `CCN(CC)CCC(C)Nc1nccc2c1[nH]c1ccc(F)cc12` (configuration not stated) had an IC50 with Plasmodium falciparum [1] of 1200 nM.

For the compound `CC1NCCc2c1[nH]c1ccc(Br)cc21` (configuration not stated), the IC50 with Plasmodium falciparum [3] is 5.7 µM.

For the compound `COc1cc(C2NCCc3c2[nH]c2ccccc32)c([N+](=O)[O-])cc1OC` (configuration not stated), in the assay on Plasmodium falciparum [3], the IC50 was determined as 11.3 µM.

In the assay on Plasmodium falciparum [2], `Cc1ccccc1C1NCCc2c1[nH]c1ccccc21` (configuration not stated) gave an IC50 of 15.2 µM.

For `COC(=O)c1cc2c3c(c1)c1ccccc1n3C=C(C)OC2C1=CCCC=C1` (configuration not stated), the IC50 with Plasmodium falciparum [4] and in the assay with Plasmodium falciparum [5] was above 5 µM in each case.

With `CCCCCC[C@H]1N[C@H](C(=O)OC)Cc2c1[nH]c1ccccc21`, the IC50 with Plasmodium berghei was below 5 µg/mL.

Regarding `CN1CCN(c2nccc3c2[nH]c2ccccc23)CC1`, in the assay with Plasmodium falciparum [1], the IC50 is 620 nM.

Compound `N#Cc1ccc(C2NCCc3c2[nH]c2ccccc32)cc1` (configuration not stated) showed an IC50 with Plasmodium falciparum [3] of 1.1 µM.

In the assay with Plasmodium falciparum [6], `O[C@]12C=C[C@@H]3CCN(CCCC/C=C\CC1)C[C@@]31C[C@@H]3CCCCCCN3[C@H]12` registered an IC50 of 0.2 µg/mL (≈ 0.52 µM).

As for `COC(=O)[C@@H]1Cc2c([nH]c3ccccc23)[C@@H](c2cccs2)N1`, in the assay with Plasmodium berghei, the IC50 was below 5 µg/mL.

As for `O=[N+]([O-])c1ccccc1C1NCCc2c1[nH]c1ccccc21` (configuration not stated), the IC50 in the assay on Plasmodium falciparum [3] was 47.7 µM.

The compound `Fc1ccc(C2NCCc3c2[nH]c2ccccc32)cc1` (configuration not stated) came in with an IC50 in the assay on Plasmodium falciparum [3] of 1.1 µM.

With `Clc1ccc(C2NCCc3c2[nH]c2ccccc32)cc1` (configuration not stated), in the assay on Plasmodium falciparum [3], the IC50 stood at 4.8 µM.

In the assay with Plasmodium falciparum [1], `c1ccc2c(c1)[nH]c1c(N3CCCCC3)nccc12` displayed an IC50 of 1200 nM.

`CCN(CC)CCCNc1nccc2c1[nH]c1ccc(Cl)cc12`: the IC50 in the assay on Plasmodium falciparum [1] worked out at 1080 nM.

As to `C=C[C@H]1CN2CCc3c([nH]c4c([C@@H]5CCCN5C)c(O)ccc34)[C@@H]2C[C@@H]1CC1c2[nH]c3ccccc3c2CCN1C` (some centres not stated), the IC50 in the assay with Plasmodium falciparum [7] (setting [11]) is 120 nM; with Plasmodium falciparum [8], below 500 nM; with Plasmodium falciparum [9] (setting [12]) it was 152 nM.

In the assay with Plasmodium falciparum [10], `O=C(O)c1cc2c([nH]c3ccccc32)c(-c2c[nH]c3ccccc23)n1` returned an IC50 above 3.1 µM.

Turning to `COc1ccc(C2NCCc3c2[nH]c2ccccc32)cc1` (configuration not stated), the midpoint of inhibition in the assay on Plasmodium falciparum [2], the IC50, lay at 0.7 µM.

The compound `COC(=O)c1cc2c3c(c1)c1cc(Br)ccc1n3C=C(C)OC2` gave an IC50 with Plasmodium falciparum [4] above 5 µM.

As for `COC(=O)[C@@H]1Cc2c([nH]c3ccccc23)[C@H](c2ccc3c(c2)OCO3)N1`, the IC50 in the assay with Plasmodium berghei is below 5 µg/mL.

The compound `O=[N+]([O-])c1ccc(C2NCCc3c2[nH]c2ccccc32)cc1` (configuration not stated) yielded an IC50 in the assay on Plasmodium falciparum [3] of 1.7 µM.

`FC(F)(F)c1ccc(C2NCCc3c2[nH]c2ccccc32)cc1` (configuration not stated) returned an IC50 in the assay on Plasmodium falciparum [3] of 12.6 µM.

With `COC(=O)c1cc2c3c(c1)c1cc(Cl)ccc1n3C=C(C)OC2`, the figures for the IC50 in the assay on Plasmodium falciparum [4] and in the assay with Plasmodium falciparum [5] were above 1.78 µM and above 2.45 µM, respectively.

On to `C=CCC1OC(C)=Cn2c3ccccc3c3cc(C(=O)OC)cc1c32` (configuration not stated), for which the IC50 in the assay on Plasmodium falciparum [4] and in the assay with Plasmodium falciparum [5] was above 5 µM in each case.

For `[O-][N+]12CCCC/C=C\[C@H]1C[C@]13C[N@@+]4([O-])CCCC/C=C\CC[C@](O)(C=C[C@@H]1CC4)[C@@H]32` (some centres not stated), in the assay with Plasmodium falciparum [6], the IC50 worked out at 0.017 µg/mL (≈ 0.041 µM).

As for `COC(=O)C1Cc2c([nH]c3ccccc23)C(c2c[nH]c3ccccc23)=N1` (configuration not stated), the IC50 in the assay on Plasmodium falciparum [10] was above 29 µM.

Turning to `C=C[C@H]1CN2CCc3c([nH]c4ccccc34)[C@@H]2C[C@@H]1CC1c2[nH]c3ccccc3c2CCN1C` (some centres not stated), the IC50 with Plasmodium falciparum [7] (setting [11]) was 2500 nM; in the assay with Plasmodium falciparum [8], 2000 nM; in the assay on Plasmodium falciparum [9] (setting [12]) it was 2360 nM.

On to `CC1C2=CN3CCc4c([nH]c5ccc(O)cc45)C3CC2CC2C3C(CCN2C)c2ccccc2N13` (stereo in doubt; 33), for which the IC50 came out at 9550 nM in the assay with Plasmodium falciparum [7] and 12700 nM with Plasmodium falciparum [9].

For `COc1cccc(C2NCCc3c2[nH]c2ccccc32)c1` (configuration not stated), the IC50 in the assay on Plasmodium falciparum [3] worked out at 25.1 µM.

In the assay on Plasmodium falciparum [1], `CCN(CC)CCCNc1nccc2c1[nH]c1ccc(F)cc12` came in with an IC50 of 360 nM.

On to `CCCCCC[C@@H]1N[C@H](C(=O)OC)Cc2c1[nH]c1ccccc21`, for which, in the assay on Plasmodium berghei, the IC50 was below 5 µg/mL.

Compound `c1ccc2c(c1)[nH]c1c(N3CCOCC3)nccc12` returned a concentration for half-maximal inhibition (IC50) in the assay with Plasmodium falciparum [1] of 4590 nM.

In turn, `c1ccc2c(c1)[nH]c1c(N3CCC(N4CCCCCC4)CC3)nccc12` displayed an IC50 with Plasmodium falciparum [1] of 350 nM.

In turn, `c1ccc2c(c1)[nH]c1c(N3CCC(N4CCCCC4)CC3)nccc12` returned an IC50 in the assay on Plasmodium falciparum [1] of 390 nM.

Compound `Cc1ccc(C)c(C2NCCc3c2[nH]c2ccccc32)c1` (configuration not stated) displayed an IC50 in the assay with Plasmodium falciparum [2] of 28.9 µM.

On to `C/C=C/CC1OC(C)=Cn2c3ccccc3c3cc(C(=O)OC)cc1c32` (configuration not stated), for which the IC50 in the assay with Plasmodium falciparum [4] was above 5 µM.

`COc1ccc2[nH]cc(C3NCCc4c3[nH]c3ccc(OC)cc43)c2c1` (configuration not stated): the IC50 in the assay on Plasmodium falciparum [10] was 8 µM.

In the case of `C/C=C1\CN2CCc3c([nH]c4ccccc34)[C@@H]2C[C@@H]1CC1=NCCc2c1[nH]c1ccccc21`, the IC50 in the assay with Plasmodium falciparum [7] (setting [11]) was 857 nM; in the assay with Plasmodium falciparum [8], below 2000 nM; with Plasmodium falciparum [9] (setting [12]), 32 nM.

For orientation: IC50 means the concentration needed to halve the response being measured.

Values taken from ChEMBL document CHEMBL5096184, “Structure activity relationship in β-carboline derived anti-malarial agents” (Eur J Med Chem, 2021).
